# Data published in patent US11266714B2, “Chloride salt of TAT-NR2B9C” (NoNO Inc., priority 2014, dated 2022).
# No end group written: not given here.
# Assay: Solubility study of TAT-NR2B9c, visual analysis
# Assay type: physicochemical
# Conditions: pH 6.5, 35, 50, 75 and 100 mg/mL, t=0 and t=24 hours
# Method: Due to the relatively low Tg temperatures that would likely require a longer lyophilization cycle to dry, we looked at a wider range of standard bulking agents and looked to reduce the fill volume into the container closure system so that there would be a reduced volume of liquid to lyophilize. […] Samples were visually analyzed at 35, 50, 75 and 100 mg/mL. All solutions were clear at t=0 and t=24 hours. […] A wide range of quantities may be required in a vial, but 270 mg would provide a […] dose for a 100 kg patient. Assuming the target reconstitution concentration for patient administration is still 20 mg/mL (but can be from 1 mg/ml to 100 mg/ml), then a 20-mL lyophilization vial containing 270 mg of TAT-NR2B9c can be used with a reconstitution volume of 13.5 mL. Therefore, optimal volumes of liquid for lyophilization of TAT-NR2B9c in the vial would be between 2.5 mL and 10 mL.
sequence,measurement,setting,value
YGRKKRRQRRRKLSSIESDV [TAT-NR2B9c],"solubility, visual analysis",in Histidine+Trehalose,clear
same,"solubility, visual analysis",in Histidine,clear
